In patent US7696231B2, “Oxindole hydrazide modulators of protein tyrosine phosphatases (PTPs)” (Laboratoires Serono SA, priority 2001, dated 2010):

Columns and labels:
PTP1B = target: T1, PTP1B (Homo sapiens, UniProt P18031); experiment: PTP Enzyme Assay (PTP1B); assay type: biochemical; conditions: catalytic core of human recombinant PTP, DiFMUP substrate at Km, 30 minutes at room temperature; read-out: inhibition (IC50) with regard to PTP1B
T1 construct: using the catalytic core of a human recombinant PTP, as an enzyme; made in house
T1 sequence (P18031 3-277 limits assumed): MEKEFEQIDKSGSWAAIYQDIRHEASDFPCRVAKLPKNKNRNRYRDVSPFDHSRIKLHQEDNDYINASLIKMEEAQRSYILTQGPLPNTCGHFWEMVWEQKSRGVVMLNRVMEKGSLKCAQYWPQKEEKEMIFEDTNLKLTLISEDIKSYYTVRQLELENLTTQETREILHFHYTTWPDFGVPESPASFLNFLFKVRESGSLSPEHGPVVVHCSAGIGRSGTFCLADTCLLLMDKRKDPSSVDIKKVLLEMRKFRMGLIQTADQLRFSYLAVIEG
Description: (§1) The PTP Enzyme Assay aims at determining the extent of inhibition of the examined PTP (e.g. PTP1B, TC-PTP, PTP-β, DEP-1, LAR, SHP-1, SHP-2, GLEPP-1, PTP-κ, PTP-μ, VHR, hVH5) in the presence of a test compound. The inhibition is illustrated by IC50 values which denote the concentration necessary to achieve an inhibition of 50% of the given PTP.
(§2) The cloning and expression of the catalytic domain of PTPs (e.g. PTP1B, TC-PTP, PTP-β, DEP-1, LAR, SHP-1, SHP-2, GLEPP-1, PTP-κ, PTP-μ, VHR, hVH5) maybe performed as described in J. Biol. Chem. 2000, 275(13), pp 9792-9796.
(§3) Assays were performed in a 96 well plate format, using the catalytic core of a human recombinant PTP, as an enzyme and 6,8-DiFluoro-4-MethylUmbelliferyl Phosphate (DiFMUP, Molecular Probes, D-6567) as a substrate at the Km value which was predetermined for each enzyme. Compounds to be tested were dissolved in 100% DMSO at a concentration of 2 mM. […] The reaction ran for 30 minutes at room temperature before reading the fluorescence intensity on a Perkin-Elmer Victor 2 spectrofluorimeter (excitation at 355 nm, emission at 460 nm, for 0.1 s). The percentage of inhibition relative to the fluorescence observed in the presence of solvent (5% DMSO) alone was determined. The IC50 values for inhibition were determined in triplicates on at least 3 separate occasions.

db/db mice [1] = experiment: In vivo assay in db/db mice, fasted animals (postprandial glycemia); conditions: db/db mice fasted 20 hours, 100 mg/kg per os, blood glucose before and 4 hrs after drug administration
Procedure: (§4) The following assay aims at determining the anti-diabetic effect of the test compounds of formula (I), in vivo in db/db mice using either fasted (to determine the postprandial glycemia right after a predetermined diet), or fed animals, to determine glycemia after a predetermined period of treatment.
(§5) 2 groups of db/db mice, 6 animals each, were formed, in the first one mice were fasted during 20 hours, the second one comprises fed (ad libitum) mice.
Group 1: The fasted animals (6) were administered (per os) a dose of 100 mg/kg of the test compound according to formula (I).
After oral administration with compounds of formula (I), they had access to commercial food (ad libitum). Blood glucose (postprandial glycemia) was determined before and 4 hrs after drug administration.

GLEPP-1 = target: T2, GLEPP-1 (Homo sapiens, UniProt Q16827); experiment: PTP Enzyme Assay (GLEPP-1); assay type: biochemical; conditions: catalytic core of human recombinant PTP, DiFMUP substrate at Km, 30 minutes at room temperature; read-out: inhibition (IC50) with regard to GLEPP-1
T2 construct: using the catalytic core of a human recombinant PTP, as an enzyme; made in house
T2 sequence (Q16827 938-1195 limits assumed): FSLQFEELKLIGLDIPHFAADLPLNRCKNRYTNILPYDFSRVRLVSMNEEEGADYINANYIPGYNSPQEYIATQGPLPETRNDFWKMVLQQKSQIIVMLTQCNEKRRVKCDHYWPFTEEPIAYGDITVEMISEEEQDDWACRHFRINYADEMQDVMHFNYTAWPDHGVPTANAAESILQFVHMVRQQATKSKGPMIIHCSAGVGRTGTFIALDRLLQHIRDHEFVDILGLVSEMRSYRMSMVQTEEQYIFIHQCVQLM
Description: as §1, §2, §3

db/db mice [2] = experiment: In vivo assay in db/db mice, fed animals (repeated oral administration); conditions: 5×50 mg/kg per os once daily during 5 days, blood glucose before and 16 hrs after the last drug administration
Procedure: as §4, §5
Group 2: The fed animals (6) were administered (per os) a dose of 5×50 mg/kg of the test compound according to formula (I).
Mice were orally treated once daily during 5 days with compounds of formula (I). Blood glucose was determined before drug administration and 16 hrs after the last drug administration.

IC50 (PTP1B) [nM] | IC50 (GLEPP-1) [nM] | Compound | reduction of blood glucose level induced by food intake (postprandial glycemia) (db/db mice [1]) [%] | reduction of the blood glucose level (db/db mice [2]) [%]
340 | ~496 | O=C(CCc1ccccc1)Nc1ccc(C(=O)NN=C2C(=O)Nc3ccc(I)cc32)cc1 [Example 1, N-(4-{[2-(5-Iodo-2-oxo-1,2-dihydro-3H-indol-3-ylidene)hydrazino]carbonyl}phenyl)-3-phenylpropanamide] | 30 | 22
– | – | O=C(COc1ccc([N+](=O)[O-])cc1)NN=C1C(=O)Nc2ccc(I)cc21 [Example 18, N′-(5-Iodo-2-oxo-1,2 dihydro-3H-indol-3-ylidene)-2-(4-nitrophenoxy)acetohydrazide] | 34 | –
– | – | COC(=O)c1ccc(OCC(=O)NN=C2C(=O)Nc3ccc(I)cc32)cc1 [Example 23, Methyl 4-{2-[2-(5-iodo-2-oxo-1,2-dihydro-3H-indol-3-ylidene)hydrazino]-2-oxoethoxy}benzoate] | – | 30
– | – | O=C1Nc2ccc(I)cc2C1=NNC(=O)c1cccc(Oc2ccccc2)c1 [Example 26, N′-(5-Iodo-2-oxo-1,2-dihydro-3H-indol-3-ylidene)-3-phenoxybenzohydrazide] | – | 17
– | – | O=C1Nc2ccc(I)cc2C1=NNC(=O)c1ccc(NC(=O)c2ccccc2)cc1 [Example 50, N-(4-{[2-(5-Iodo-2-oxo-1,2-dihydro-3H-indol-3-ylidene)hydrazino]-carbonyl}phenyl)benzamide] | 30 | –
770 | – | O=C(CCc1cccc(O)c1)Nc1ccc(C(=O)NN=C2C(=O)Nc3ccc(I)cc32)cc1 [Example 70, 3-(3-Hydroxyphenyl)-N-(4-{[2-(5-iodo-2-oxo-1,2-dihydro-3H-indol-3-ylidene)hydrazino]carbonyl}phenyl)propanamide] | – | –
